Patent US4005206A, “[9H]-Pyrido-[3,4-b]-indoles” (Roussel-UCLAF, priority 1976, dated 1977)
In brackets after ≈: the same amount, converted by molar mass. Where a name gives a salt, the structure may show the parent alone.

Columns and labels:
[1] = test system: amytal-induced sleep; test: Potentialization of sleeping time (amytal); type: in vivo, female mice; conditions: for minimal effective dose: Mus musculus, ip, 1 h, i.p. one hour before 80 mg/kg i.v. amytal, female mice 18 to 22 g, 25° C, read-out: DE50 (minimum dose for significantly prolonging the duration of sleep); for neurosedative activity (in words): conclusion from Table II
Procedure: 2. Potentialization of sleeping time
This test was effected with amytal (5-ethyl-5-isoamyl-barbituric acid) on groups of female mice weighing 18 to 22 g and held at 25° C for the duration of the test. The test products were administered intraperitoneally at different does one hour before the intravenous administration of 80 mg/kg of amytal and the time of sleep was recorded as the suspending time for the straighting reflex of the mice as negative.

[2] = test system: rigidity provoked by reserpine; test: Antagonism to reserpinic rigidity (electromyogram); type: in vivo, rats; parameters: key to Antagonism to reserpine rigidity: The results were expressed by an increasing number of + sign; ++: The results were expressed by an increasing number of + sign; conditions: for Antagonism to reserpine rigidity: 20 mg/kg i.v., 30 minutes after 10 mg/kg i.v. reserpine, EMG, rats; for activity against reserpine rigidity (in words): dose of 20 mg/kg
Procedure: 3. Antagonism to reserpinic rigidity
This test was effected on rats using the procedure of Jurna I. [Arch. Pharmak. Exp. Path., Vol. 260 (1968), p. 80-88] wherein the electromyogram (EMG) caused by a dorsiflexion due to the shock of the foot by electrodes placed against the muscles of the front portion of the rear paw of the animal. A dose of 10 mg/kg of reserpine was intravenously administered and then 30 minutes later when the hypertonicity of the muscle was the maximum, the test product was intravenously administered at a dose of 20 mg/kg. The inhibition was observed by the electromyogram showing the antagonism exercised by the test product against the rigidity provoked by reserpine.

[3] = test system: serotonine-provoked contraction of guinea pig ileon; test: Antiserotonine activity on isolated ileon; type: cell-based; conditions: for IC50: Cavia porcellus, isolated guinea pig ileon, Tyrode liquid 37° C, contact time one minute, read-out: IC50 (approximate 50% inhibiting concentration, contraction by serotonine)
Procedure: Serotonine provokes contraction of a certain number of smooth muscles and especially guinea pig ileon and antiserotonine activity is determined in vitro on the isolated ileon of the guinea pig immersed in oxygenated Tyrode liquid at 37° C. The activity of the antagonist is measured by the concentration thereof which after a contact time of one minute diminishes by about 50% the contraction of a portion of ileon when a standard dose of serotonine is added to the Tyrode liquid. The approximate 50% inhibiting concentration (IC50) was determined in micrograms per ml and the results are in Table IV.

[4] = Acute toxicity; conditions: mouse, in vivo, ip; intraperitoneal, mice, mortality 48 hours later; read-out: Approximate DL50 (50% lethal dose)
Procedure: The 50% lethal dose (DL50) was determined by intraperitoneal administration of the products to mice and the mortality was determined 48 hours later.

[5] = test system: platelet aggregation caused by collagen; test: Platelet aggregation caused by collagen (turbidimetric method of Born); type: cell-based, rabbit; conditions: for IC50: Oryctolagus cuniculus, rabbit platelet-rich plasma, 40 μg/ml collagen, read-out: IC50 (dose which inhibited by 50% the aggregation caused by collagen); for activity against platelet aggregation caused by collagen (in words): conclusion in words
Procedure: Platelet aggregation is effected with a Mustard aggregometer using the turbidimetric method of Born [J. Physiol., Vol. 168 (1963), p. 178-195] which consists of measuring the variation in transmission of a light ray or beam passing through a tube containing a plasma rich in platelets. When the aggregates are formed, the amount of light transmitted is greater and the optical density is diminished. The platelets used are obtained from rabbit plasma and the agent inducing the aggregation was 40 μg/ml of collagen. The 50% inhibiting concentration (IC50) was determined for each product which was the dose which inhibited by 50% the aggregation caused by collagen.

[6] = test system: toxicity of the amphetamine group (dexamphetamine sulfate); test: Antagonism toward amphetamine type (dexamphetamine-induced mortality); type: in vivo, male mice; conditions: for ED50: Mus musculus, ip, i.p. one hour before 15 mg/kg i.p. dexamphetamine sulfate, mortality at 4 hours, male mice, read-out: DE50 (dose which reduced by 50% the number of dead animals); for antagonism with respect to the toxicity of the amphetamine group (in words): conclusion from Table I
Procedure: 1. Antagonism toward amphetamine type
The antagonism of the compounds with regard to amphetaminic group was studied on groups of 10 male mice which received intraperitoneally 15 mg/kg of dexamphetamine sulfate one hour after the intraperitoneal administration of the test compound.
The mortality per group was totally counted 4 hours after the administration of dexamphetamine sulfate and the DE50 dose which reduced by 50% the number of dead animals was determined as shown in Table I.

For `COc1ccc2[nH]cc(CC3NCCc4c3[nH]c3ccc(OC)cc43)c2c1` (centres unmarked) [Example 1, 1-(5'-methoxy-3'-indolyl-methyl)-6-methoxy-1,2,3,4-tetrahydro[9H]-pyrido-[3,4-b]-indole-hydrochloride], the minimal effective dose [1] was 10 mg/kg, the “neurosedative activity (in words)” value [1] was “very important neurosedative activity” and the “Antagonism to reserpine rigidity” value [2] was “++”. For the same molecule, the “activity against reserpine rigidity (in words)” value [2] was “very active”, the IC50 [3] was 0.5 µg/mL and the LD50 at 48 h [4] was 150 mg/kg.

In the case of `COc1ccc2[nH]cc(CC3NCCc4c3[nH]c3ccc(O)cc43)c2c1` (centres unmarked) [Example 2, 1-(5'-methoxy-3'-indolyl-methyl)-6-hydroxy-1,2,3,4-tetrahydro[9H]-pyrido-[3,4-b]-indole], the minimal effective dose [1] is reported as 50 mg/kg, the IC50 [3] is reported as 0.5 to 1 µg/mL (≈ 1.44 to 2.88 µM) and the LD50 at 48 h [4] is reported as 200 mg/kg.

With `COc1ccc2[nH]c3c(c2c1)CCNC3Cc1c[nH]c2ccccc12` (centres unmarked) [Example 3, 1-(3'-indolylmethyl)-6-methoxy-1,2,3,4-tetrahydro-[9H]-pyrido-[3,4-b]-indole hydrochloride] the “Antagonism to reserpine rigidity” value [2] was “+”, the IC50 [3] was 1 µg/mL and the LD50 at 48 h [4] was 350 mg/kg.

Work on `Clc1ccc2[nH]cc(CC3NCCc4c3[nH]c3ccccc43)c2c1` (centres unmarked) [Example 4, 1-(5'-chloro-3'-indolyl-methyl)-1,2,3,4-tetrahydro-[9H]-pyrido-[3,4-b]-indole hydrochloride] yielded a minimal effective dose [1] of 50 mg/kg and an LD50 at 48 h [4] of 500 mg/kg.

For `COc1ccc2[nH]cc(CC3NCCc4c3[nH]c3ccccc43)c2c1` (centres unmarked) [Example 5, 1-(5'-methoxy-3'-indolyl-methyl)-1,2,3,4-tetrahydro-[9H]pyrido-[3,4-b]-indole-hydrochloride], the minimal effective dose [1] was 50 mg/kg, the “Antagonism to reserpine rigidity” value [2] was “++” and the “activity against reserpine rigidity (in words)” value [2] was “very active”. It also gave an IC50 [3] of 2 µg/mL, an IC50 [5] of roughly 100 µM and an LD50 at 48 h [4] of 150 mg/kg.

In the case of `Oc1ccc2[nH]c3c(c2c1)CCNC3Cc1c[nH]c2ccccc12` (centres unmarked) [Example 6, 6-hydroxy-1-(3'-indolyl-methyl)-1,2,3,4-tetrahydro [9H]pyrido-[3,4-b]-indole-fumarate], the ED50 [6] is reported as 35 mg/kg, the “antagonism with respect to the toxicity of the amphetamine group (in words)” value [6] is reported as “important antagonism” and the minimal effective dose [1] is reported as 20 mg/kg. For the same molecule, the IC50 [3] was 2 µg/mL (≈ 6.3 µM), the “activity against platelet aggregation caused by collagen (in words)” value [5] was “important activity” and the LD50 at 48 h [4] was 150 mg/kg.

For `Clc1ccc2[nH]c3c(c2c1)CCNC3Cc1c[nH]c2ccccc12` (centres unmarked) [Example 7, 6-chloro-1-(3'-indolylmethyl)-1,2,3,4-tetrahydro-[9H]-pyrido-[3,4-b]-indole], the ED50 [6] was 20 mg/kg, the “antagonism with respect to the toxicity of the amphetamine group (in words)” value [6] was “important antagonism” and the minimal effective dose [1] was 10 mg/kg. For the same molecule, the “neurosedative activity (in words)” value [1] was “very important neurosedative activity”, the IC50 [3] was 1 to 2 µg/mL (≈ 2.98 to 5.96 µM) and the LD50 at 48 h [4] was 150 mg/kg.

In the case of `Oc1ccc2[nH]cc(CC3NCCc4c3[nH]c3ccccc43)c2c1` (centres unmarked) [Example 9, 1-(5'-hydroxy-3'-indolyl-methyl)-1,2,3,4-tetrahydro-[9H]-pyrido-[3,4-b]-indole-hydrochloride], the ED50 [6] is reported as 50 mg/kg, the IC50 [3] is reported as 0.1 to 0.2 µg/mL and the “antiserotonine activity (in words)” value ([3]; conclusion in words) is reported as “important antiserotonine activity”. The IC50 [5] was 1 µM and the “activity against platelet aggregation caused by collagen (in words)” value [5] was “important activity”.

Molecule `c1ccc(COc2ccc3[nH]cc(CC4NCCc5c4[nH]c4ccc(OCc6ccccc6)cc54)c3c2)cc1` (centres unmarked) [Example 10, 1-(5'-benzyloxy-3' -indolylmethyl)-6-benzyloxy-1,2,3,4-tetrahydro-[9H]-pyrido-[3,4-b]-indole-hydrochloride] has an LD50 at 48 h [4] of 300 mg/kg.
